From US20230028441A1, “NOVEL HETEROARYL-TRIAZOLE COMPOUNDS AS PESTICIDES” (Bayer Aktiengesellschaft, priority 2019, published 2023) come the findings set out here.

Type in all cases: in vivo
Experiment [1] relates to Anopheles funestus strain FUMOZ-R. Briefly: Anopheles funestus test (ANPHFU surface treatment & contact assay). The settings on record: 24 hours after contact, read-out: efficacy (mortality). On the procedure: (§1) Solvent: Aceton+2000 ppm rapeseed oil methyl ester (RME)
In order to produce a sufficient, active ingredient containing solution it is necessary to solve the test compound in the solvent-mix (acetone at 2 mg/ml/RME 2000 ppm). This solution is pipetted onto a glazed tile and after evaporation of the acetone, adult mosquitoes of the species Anopheles funestus strain FUMOZ-R (Hunt et al., Med. Vet. Entomol. 2005 September; 19(3): 271-275) are placed onto the dried surface. The exposure time is 30 minutes.
(§2) Mortality in percent (%) is determined 24 hours after contact of the insects to the treated surface. 100% mortality means that all tested insects are dead, whereas 0% means that no insect died.

The subject of experiment [2] is Blattella germanica strain PAULINIA
Briefly: Blattella germanica test (BLTTGE surface treatment & contact assay). The following applies: 24 hours after contact, read-out: efficacy (mortality). On the procedure:
as §1
In order to produce a sufficient, active ingredient containing solution it is necessary to solve the test compound in the solvent-mix (acetone at 2 mg/ml/RME 2000 ppm). This solution is pipetted onto a glazed tile and after evaporation of the acetone, adult animals of the species Blattella germanica strain PAULINIA are placed onto the dried surface. The exposure time is 30 minutes.
as §2

For experiment [3], the system named is brown planthopper (Nilaparvata lugens). In words: Nilaparvata lugens spray test. The settings on record: in Oryza sativa, 96 h. The method in brief: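 Rice plants (Oryza sativa) sprayed with compound in acetone/DMF diluted in water containing 1000 ppm alkylarylpolyglycol ether emulsifier, then infested with planthoppers. Mortality % scored after 4 days (100% = all killed, 0% = none killed).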

Experiment [4] deals with green peach aphid (Myzus persicae). In words: Myzus persicae oral test. The following applies: 120 h. The method in brief:
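Oral uptake format: water-diluted acetone concentrate of compound is blended into IPL41 medium carrying 33%+15% sugar and offered under a parafilm membrane. Percentage of dead insects is recorded after 5 days.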

The test system of experiment [5] is cattle ticks (Rhipicephalus microplus) strain Parkhurst, SP-resistant. Briefly: Rhipicephalus (Boophilus) microplus dip test. The following applies: 100 ppm, egg deposition after 7 days. On the procedure:
Test animal: cattle ticks (Rhipicephalus microplus) strain Parkhurst, SP-resistant
Solvent: dimethyl sulfoxide
To produce a suitable preparation of active compound, 10 mg of active compound are dissolved in 0.5 mL solvent, and the concentrate is diluted with water to the desired concentration.
This compound solution is pipetted into tubes. 8-10 engorged, adult, female cattle ticks (Rhipicephalus microplus) are placed in perforated tubes. These tubes are immersed in the aqueous compound solution until the ticks are completely moistened. After the liquid has drained off, the ticks are transferred to a filter paper in a plastic tray and stored in a climate chamber.
After 7 days egg deposition of fertile eggs is monitored. Eggs where fertility is not visible are stored in a climate chamber till hatching after about 42 days. An efficacy of 100% means all eggs are infertile; 0% means all eggs are fertile.

The test system of experiment [6] is adult cat fleas (Ctenocephalides felis). Briefly: Ctenocephalides felis in-vitro contact test, adult cat flea. The settings on record: 5 μg/cm^2 (=500 g/ha), after 48 hours, read-out: efficacy (fleas dead or moribund). The method in brief:
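Acetone solutions were coated on glass tube walls, 900 ppm giving 5 μg/cm^2. After drying, 5-10 adult fleas per tube were held 48 h at room temperature. Fleas unable to climb away from a 45-50 °C heating plate within 5 min were scored dead or moribund, as % efficacy.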

In experiment [7] the test system is green peach aphid (Myzus persicae). In words: Myzus persicae spray test. The settings on record: foliar, 120 h, 100 g/ha, after 5 days, Chinese cabbage leaf disks. The method in brief:
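Chinese cabbage leaf disks carrying all instars of Myzus persicae were sprayed with compound. The formulation was acetone/dimethylformamide diluted in water with 1000 ppm alkylarylpolyglycol ether emulsifier. Percent mortality was scored after 5 days, with 100% meaning all aphids killed.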

Experiment [8] has as its system caterpillars of the fall army worm (Spodoptera frugiperda). In words: Spodoptera frugiperda spray test (cotton leaves). The following applies: 168 h. The method in brief: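 Cotton leaves sprayed with compound in water/DMF with 1000 ppm alkylaryl polyglycol ether emulsifier, ammonium salt and/or penetration enhancer at 1000 ppm added if necessary, then infested with fall armyworm caterpillars. Mortality in % scored after 7 days; 100% means all caterpillars killed.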

The mark [9] stands for this setting: surface concentration 4 mg/m^2, 30 minutes exposure.
Where [10] appears, read: surface concentration 20 mg/m^2, 30 minutes exposure.

Broadly, the mortality is the percentage killed.

Each structure is given as a SMILES string.

Consider `CNc1nc(C(C)NC(=O)c2cc(C(F)(F)F)cc(C(F)(F)F)c2)n(-c2ncccn2)n1` (stereo not shown) [I-088], for which the mortality at 4 mg/m2 in experiment [1] (setting [9]) and in experiment [2] (setting [9]) was 90 to 100% in each case. In addition, the mortality at 20 mg/m2 in experiment [1] (setting [10]) and in experiment [2] (setting [10]) was 90 to 100% throughout. The mortality at 100 g/ha in experiment [3] and in experiment [7] was 100% in each case. In addition, the mortality at 4 ppm in experiment [4] turned out to be 100%. The “efficacy (infertile eggs)” value in experiment [5] was 100%. Moreover, the pest or weed control at 5 µg/cm2 in experiment [6] is 100%.

As for `CC(NC(=O)c1cc(Cl)cc(C(F)(F)F)c1)c1nc(N)nn1-c1ccc(Cl)cn1` (racemic) [I-006, N-[1-[5-amino-2-(5-chloro-2-pyridyl)-1,2,4-triazol-3-yl]ethyl]-3-chloro-5-(trifluoromethyl)benzamide], the mortality at 500 g/ha in experiment [3] was 90%. This molecule also came in with a mortality at 4 ppm in experiment [4] of 100%. Besides, the mortality at 20 ppm in experiment [8] worked out at 100%. The pest or weed control at 5 µg/cm2 in experiment [6] stood at 100%.
